Measurements as given in US10934298B2, “Substituted pyrazolo[1,5-a]pyrimidines for the treatment of medical disorders” (BIAL—BioTech Investments, Inc., priority 2016, dated 2021).

Target: T1, glucocerebrosidase (Gcase) (Homo sapiens, UniProt P04062)
T1 construct: micellar solution containing 10 nM GCase and 100 nM saposin C
T1 sequence (P04062 40-536): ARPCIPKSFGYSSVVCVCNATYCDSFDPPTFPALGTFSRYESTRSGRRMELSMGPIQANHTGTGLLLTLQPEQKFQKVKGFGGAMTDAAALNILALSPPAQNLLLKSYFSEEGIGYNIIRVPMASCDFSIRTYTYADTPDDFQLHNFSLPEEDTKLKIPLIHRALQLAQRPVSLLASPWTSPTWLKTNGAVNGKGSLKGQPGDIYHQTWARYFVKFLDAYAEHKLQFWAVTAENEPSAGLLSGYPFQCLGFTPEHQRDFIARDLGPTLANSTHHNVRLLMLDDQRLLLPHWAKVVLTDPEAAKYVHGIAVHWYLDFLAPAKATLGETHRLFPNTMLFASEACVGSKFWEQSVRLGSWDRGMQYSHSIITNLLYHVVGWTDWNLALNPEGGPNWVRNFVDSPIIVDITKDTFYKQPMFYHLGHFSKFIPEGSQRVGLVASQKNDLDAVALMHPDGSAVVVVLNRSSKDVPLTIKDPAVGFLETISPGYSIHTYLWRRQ
Experiment: Glucocerebrosidase (Gcase) activation assay with 4-methylumbelliferyl-beta-D-glucopyranoside substrate, saposin C and phosphatidylserine/triton micelles, fluorescence readout
Type: biochemical
Method in brief: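 Test compounds are first screened at 1.0 and 0.1 μM final, then titrated in 8 points (3-fold from 5 μM) against human GCase with saposin C in phosphatidylserine/triton X-100 micelles at pH 4.7. Reactions run 15 min at room temperature, with fluorescence read at 365/440 nm.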

SMILES | Percent Gcase Activation, 0.1 μM Test Compound | Percent Gcase Activation, 1 μM Test Compound
Cc1cc(-c2ccc(C#N)nc2)nc2c(C(=O)NC(C)(C)C3CC3)cnn12 [III-370] | * (less than 10% Gcase activation) | +++ (Gcase activation greater than 60%)
Cc1cc(-c2cccnc2C#N)nc2c(C(=O)NC(C)(C)C3CC3)cnn12 [III-371] | * (less than 10% Gcase activation) | +++ (Gcase activation greater than 60%)
Cc1ccc(-c2cc(C)n3ncc(C(=O)N[C@H](C4CC4)C(F)(F)F)c3n2)c(F)n1 [III-372] | *** (greater than 20% Gcase activation) | +++ (Gcase activation greater than 60%)
Cc1ccc(-c2cc(C)n3ncc(C(=O)N[C@@H](C4CC4)C(F)(F)F)c3n2)c(F)n1 [III-373] | *** (greater than 20% Gcase activation) | +++ (Gcase activation greater than 60%)
Cc1cnc(F)c(-c2cc(C)n3ncc(C(=O)N[C@H](C4CC4)C(F)(F)F)c3n2)c1 [III-374] | *** (greater than 20% Gcase activation) | +++ (Gcase activation greater than 60%)
Cc1cnc(F)c(-c2cc(C)n3ncc(C(=O)N[C@@H](C4CC4)C(F)(F)F)c3n2)c1 [III-375] | *** (greater than 20% Gcase activation) | +++ (Gcase activation greater than 60%)
Cc1ncccc1-c1cc(C)n2ncc(C(=O)N[C@H](C3CC3)C(F)(F)F)c2n1 [III-376] | * (less than 10% Gcase activation) | + (less than 30% Gcase activation)
Cc1ncccc1-c1cc(C)n2ncc(C(=O)N[C@@H](C3CC3)C(F)(F)F)c2n1 [III-377] | * (less than 10% Gcase activation) | + (less than 30% Gcase activation)
Cc1ncc(F)cc1-c1cc(C)n2ncc(C(=O)N[C@H](C3CC3)C(F)(F)F)c2n1 [III-378] | ** (Gcase activation in the range of 10% up to 20%) | +++ (Gcase activation greater than 60%)
Cc1ncc(F)cc1-c1cc(C)n2ncc(C(=O)N[C@@H](C3CC3)C(F)(F)F)c2n1 [III-379] | ** (Gcase activation in the range of 10% up to 20%) | +++ (Gcase activation greater than 60%)
Cc1ncc(-c2cc(C)n3ncc(C(=O)N[C@H](C4CC4)C(F)(F)F)c3n2)cc1F [III-380] | *** (greater than 20% Gcase activation) | +++ (Gcase activation greater than 60%)
Cc1ncc(-c2cc(C)n3ncc(C(=O)N[C@@H](C4CC4)C(F)(F)F)c3n2)cc1F [III-381] | *** (greater than 20% Gcase activation) | +++ (Gcase activation greater than 60%)
Cc1cccc(-c2cc(C)n3ncc(C(=O)N[C@@H](C4CC4)C(F)(F)F)c3n2)n1 [III-382] | *** (greater than 20% Gcase activation) | +++ (Gcase activation greater than 60%)
C#Cc1cncc(-c2cc(C)n3ncc(C(=O)N[C@@H](C4CC4)C(F)(F)F)c3n2)c1 [III-383] | *** (greater than 20% Gcase activation) | +++ (Gcase activation greater than 60%)
COCOc1cccc(-c2cc(C)n3ncc(C(=O)N[C@@H](C4CC4)C(F)(F)F)c3n2)n1 [III-384] | ** (Gcase activation in the range of 10% up to 20%) | +++ (Gcase activation greater than 60%)
